According to patent US20240335404A1, “SUBSTITUTED ESTERS CONTAINING POLYOLS AND SACCHARIDES FOR TREATING HEPATOTOXICITY AND FATTY LIVER DISEASES” (SINEW PHARMA INC., priority 2015, published 2024):

Experiments:
CYP2E1 = CYP2E1 (Homo sapiens, UniProt P05181); assay: CYP2E1 inhibitory activity assay in human liver microsomes (CZX to 6-OH-CZX)
Description: After addition of the test sample, the amount of CYP450 isozyme metabolite standard 6-OH-CZX (6-Hydroxy-Chlorzoxazone) is specific used for calculation of the CYP450 isozyme (CYP2E1) inhibition ratio of the test sample by using the amount of 6-OH-CZX of the control group as the baseline.
All samples were tested in triplicate. To determine the percentage inhibition, each test compound was dissolved in 1, 2, 4 μg/mL to three different concentrations. The CYP2E1 activity levels in the presence of the test compounds were compared with the control incubations. The 500-μL reaction mixture, containing 0.5 mg of microsomal protein, was incubated with 320 μM CZX in the presence of 5 mM MgCl2 and 1 mM NADPH in 50 mM phosphate buffer with pH 7.4 at 37° C. for 30 min. The reaction was terminated by ice-cold acetonitrile, and then 4-hydroxyl tolbutamide was added as an internal standard. The organic phase was evaporated to dryness and reconstituted into the mobile phase (methanol:water=1:1) prior to liquid chromatography-tandem mass spectrometry (LC-MS/MS) analysis. An API 3000 triple-quadrupole mass spectrometer equipped with an ion-spray (ESI) source was used to determine 6-OH-CZX in the human liver microsomes. The ESI interface was used in the positive-ion mode. The 6-OH-CZX was monitored at a transition of m/z 284.5→185.9.
The CYP450 isozyme activity levels in the presence of the test compounds were compared with the control incubations.

[1] = system: Liver Injuries Induced by APAP; assay: Liver injuries induced by APAP in rats (GSP, AST/ALT, HAI, survival); assay type: in vivo, SD (Sprague-Dawley) rats; conditions: APAP 2,000 mg/kg; for histological analysis of liver tissue, H&E: FIG. 4
Description: Male SD (Sprague-Dawley) rats weighing 175-280 g were purchased from the National Laboratory Animal Center (NLAC), Taiwan. The study was conducted in accordance with the Guidelines for Conducting Animal Studies of the National Health Research Institute and all rats were placed in the air/humidity controlled environment under the 12 hours of day/12 hours of night cycle and with unlimited water and food supply. During the course of the study, the weights of rats were monitored continuously with normal water supply.
In the normal control (Group 1), animals were not fed with APAP. In the control group of APAP-induced liver injuries (Group 2), animals were fed with a single dose of APAP in the amount of 2,000 mg per kilogram of body weight to induce hepatotoxicity. In the positive control group of treatment with NAC (Group 3), animals were fed with a single dose of APAP in the amount of 2,000 mg per kilogram of body weight to induce hepatotoxicity, and 4 hours later, a 24-hour treatment period by tube feeding was started, including first administration of 140 mg of NAC (per kilogram of body weight) and later administration of 70 mg of NAC (per kilogram of body weight) every 4 hours for five times. In the experimental group (Group 4), animals were fed with a single dose of APAP in the amount of 2,000 mg per kilogram of body weight to induce hepatotoxicity, and 4 hours later, a 24-hour treatment period by tube feeding was started, including six dosing with the ingredients of the present invention every 4 hours, as follows: • (a) (Group 4.1): administration of mannitol at a dose less than or equivalent to 100 mg per person every 4 hours for 24 hours, • (b) (Group 4.2): administration of double dose of mannitol as in Group 4.1 every 4 hours for 24 hours, • (c) (Group 4.3): administration of sucralose at a dose less than or equivalent to 100 mg per person every 4 hours for 24 hours, • (d) (Group 4.4): administration of double dose of sucralose of Group 4.3 every 4 hours for 24 hours, • (e) (Group 4.5): administration of a combination of 0.5 times the dose of mannitol as in Group 4.1 and 0.5 times the dose of sucralose as in Group 4.3 per kilogram of body weight every 4 hours for 24 hours, • (f) (Group 4.6): administration of a combination of the dose of mannitol as in Group 4.1 and the dose of sucralose as in Group 4.3 every 4 hours for 24 hours, • (g) (Group 4.7): administration of a combination of 1.5 times the dose of mannitol as in Group 4.1 and 1.5 times the dose of sucralose as in Group 4.3 every 4 hours for 24 hours, • (h) (Group 4.8): administration of a combination of double dose of mannitol as in Group 4.1 and double dose of sucralose as in Group 4.3 every 4 hours for 24 hours, and • (i) (Group 4.9): first administration of 140 mg of NAC per kilogram of body weight and later administration of a combination of 70 mg of NAC plus double dose of mannitol as in Group 4.1 and double dose of sucralose as in Group 4.3 every 4 hours for five times.
After the 24-hour treatment period, blood was collected from the tail artery of the rats for AST/SLT assays. Subsequently, rats were subjected to GSP tests. Finally, rats were sacrificed and histological analysis was performed.
After completion of the treatments, rats were sacrificed under ether anesthesia, and blood was collected from the tail artery of the rats and placed in a test tube containing EDTA. The plasma was centrifuged at 13,000 at 4° C. for 15 minutes and the isolated plasma was transferred to Eppendorf tubes in aliquots and stored at −80° C.
Liver damage is quantified by measuring plasma AST and ALT activity. AST and ALT are common indicators of hepatotoxicity and are measured by using the Synchron LXi 725 system (Beckman Instruments, U.S.).
Following scarification of the rats, histological analysis was performed.

[2] = dose less than or equivalent to 100 mg per person (mannitol, sucralose: × 6)
[3] = dose less than or equivalent to 100 mg per person (mannitol, sucralose: × 6), Day 14
[4] = double dose of Group 4.1 / Group 4.3, × 6
[5] = double dose of Group 4.1 / Group 4.3, × 6, Day 14

Sequence of CYP2E1 (P05181 whole entry): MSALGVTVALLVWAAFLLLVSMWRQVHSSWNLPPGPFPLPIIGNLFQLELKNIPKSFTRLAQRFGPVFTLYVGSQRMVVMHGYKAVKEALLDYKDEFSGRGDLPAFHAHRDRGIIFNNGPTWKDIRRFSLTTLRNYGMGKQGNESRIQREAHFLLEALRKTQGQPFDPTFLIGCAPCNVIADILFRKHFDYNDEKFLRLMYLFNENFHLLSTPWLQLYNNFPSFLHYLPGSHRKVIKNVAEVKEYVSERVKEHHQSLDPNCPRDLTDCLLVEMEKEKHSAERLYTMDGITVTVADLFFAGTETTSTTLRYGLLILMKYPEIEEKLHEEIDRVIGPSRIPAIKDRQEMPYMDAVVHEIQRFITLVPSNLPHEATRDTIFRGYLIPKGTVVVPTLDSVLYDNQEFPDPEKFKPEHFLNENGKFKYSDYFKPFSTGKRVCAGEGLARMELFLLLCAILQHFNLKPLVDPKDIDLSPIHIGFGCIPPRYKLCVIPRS

SMILES | P450 2E1 inhibitor activity (CYP2E1) | CYP 2E1 inhibition ratio (%) (CYP2E1; 1 μg/mL) | CYP 2E1 inhibition ratio (%) (CYP2E1; 2 μg/mL) | CYP 2E1 inhibition ratio (%) (CYP2E1; 4 μg/mL) | effect on APAP-induced liver injuries and survival rate [1] | histological analysis of liver tissue, H&E [1] | ALT [1, 2] | AST [1, 2] | GSP [1, 2] | Total HAI score [1, 2] | Survival (Day 14, n/n) [1, 3] | ALT [1, 4] | AST [1, 4] | GSP [1, 4] | Total HAI score [1, 4] | Survival (Day 14, n/n) [1, 5]
OC[C@@H](O)[C@@H](O)[C@H](O)[C@H](O)CO [Mannitol] | effective as P450 2E1 inhibitors | 30.1 ± 2.4% | 34.1 ± 4.1% | 40.3 ± 1.6% | liver injuries and survival rate can be improved | hepatocytes are relatively intact with visible nucleus and less vacuolization | 209 ± 16 IU/L | 455 ± 78 IU/L | 565 ± 177 mg/L | 4.0 ± 0.0 | 1/3 | 166 ± 15 IU/L | 300 ± 40 IU/L | 354 ± 56 mg/L | 4.0 ± 1.0 | 3/3
OC[C@H]1O[C@H](O[C@]2(CCl)O[C@H](CCl)[C@@H](O)[C@@H]2O)[C@H](O)[C@@H](O)[C@H]1Cl [Sucralose] | effective as P450 2E1 inhibitors | 25.1 ± 1.4% | 30.2 ± 2.8% | 32.9 ± 4.6% | liver injuries and survival rate can be improved | hepatocytes are relatively intact with visible nucleus and less vacuolization | 154 ± 49 IU/L | 331 ± 41 IU/L | 332 ± 42 mg/L | 4.0 ± 1.0 | 3/3 | 136 ± 48 IU/L | 277 ± 78 IU/L | 309 ± 54 mg/L | 3.0 ± 1.0 | 3/3
